22 compounds from US8106046B2, “Cyclopentathiophene modulators of the glucocorticoid receptor, AP-1, and/or NF-κB activity and use thereof” (Bristol-Myers Squibb Company, priority 2008, dated 2012) can be followed below.

Where two headings read alike, the source gives them in different places.

The target in experiment [1] is T1, human glucocorticoid receptor (Homo sapiens, UniProt P04150).
T1 construct: purified human recombinant full-length glucocorticoid receptor (2 nM); purchased Invitrogen Part #2893
T1 sequence (P04150 1-777): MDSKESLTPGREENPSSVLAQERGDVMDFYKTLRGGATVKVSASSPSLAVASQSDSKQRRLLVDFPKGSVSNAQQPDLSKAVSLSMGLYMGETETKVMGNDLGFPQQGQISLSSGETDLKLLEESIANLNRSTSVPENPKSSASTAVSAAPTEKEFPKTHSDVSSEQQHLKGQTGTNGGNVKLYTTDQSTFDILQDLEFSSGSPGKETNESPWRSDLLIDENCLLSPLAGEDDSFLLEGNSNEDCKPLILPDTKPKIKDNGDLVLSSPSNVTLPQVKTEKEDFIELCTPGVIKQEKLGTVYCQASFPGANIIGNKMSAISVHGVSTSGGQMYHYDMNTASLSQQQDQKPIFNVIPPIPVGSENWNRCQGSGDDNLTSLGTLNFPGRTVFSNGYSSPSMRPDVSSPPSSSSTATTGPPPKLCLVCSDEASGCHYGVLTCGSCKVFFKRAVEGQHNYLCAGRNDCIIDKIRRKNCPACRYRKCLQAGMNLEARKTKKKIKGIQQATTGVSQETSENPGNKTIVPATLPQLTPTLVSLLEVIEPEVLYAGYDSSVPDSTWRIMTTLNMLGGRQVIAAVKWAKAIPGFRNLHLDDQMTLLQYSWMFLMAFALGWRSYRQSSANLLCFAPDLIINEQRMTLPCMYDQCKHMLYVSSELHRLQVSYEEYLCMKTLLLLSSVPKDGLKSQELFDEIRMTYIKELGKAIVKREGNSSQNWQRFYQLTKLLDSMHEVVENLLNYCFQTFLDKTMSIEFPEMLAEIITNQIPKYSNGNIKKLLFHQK
Put plainly: Glucocorticoid Receptor Binding Assay (I), fluorescence polarization competitor assay. To be noted: purified human recombinant full-length GR, Fluormone GS Red. Here is the method: In order to assess the affinity of test compounds for the human glucocorticoid receptor, a commercially available kit was used (Glucocorticoid Receptor Competitor Assay Kit, Invitrogen Part #2893). Briefly, purified human recombinant full-length glucocorticoid receptor (2 nM) was mixed with fluorescently labeled glucocorticoid (1 nM Fluormone GS Red) in the presence or absence of test compound. After two hour incubation at room temperature in the dark, the fluorescence polarization (FP) of the samples was measured. The FP of a mixture of receptor, fluorescent probe (i.e., Fluormone GS Red) and 5 μM dexamethasone represented background fluorescence or 100% inhibition, whereas, the FP of the mixture without dexamethasone (but in the presence of vehicle) was taken to be 100% binding. […] Test compounds were analyzed in the concentration range from 8.5E-05 μM to 5 μM.

Experiment [2] concerns AP-1 induced transcriptional activity. Put plainly: Cellular Transrepressional Assay (AP-1 luciferase reporter in A549 cells, PMA activated). It is filed as cell-based. To be noted: 10 ng/ml PMA, 7 hours; for AP-1 Max % inh (Cellular Transrepression Assay): maximum inhibition; for EC50: read-out: AP-1 EC50, nM (Cellular Transrepression Assay). As for the experimental part:
To measure the ability of test molecules to inhibit AP-1 induced transcriptional activity we utilized an A549 cell which was stably transfected with a plasmid containing 7×AP-1 DNA binding sites (pAP-1-Luc plasmid, Stratagene Co. La Jolla, Calif.) followed by the gene for luciferase. Cells were activated with 10 ng/ml of phorbol myristic acid (PMA) plus or minus test molecules for 7 hours. After 7 hours a luciferase reagent was added to measure luciferase enzymatic activity in the cell. After a 10 minute incubation of luciferase reagent with cells, luminescence was measured in a TopCount luminescence counter. Repression of AP-1 activity was calculated as the percentage decrease in the signal induced by PMA alone. Test molecules were analyzed in the concentration range from 0.1 nM to 40 μM. EC50s were determined by using standard curve fitting methods such as Excel fit (Microsoft Co.). An EC50 is the test molecule concentration at which there is a 50% repression of the maximal inhibition of transcription, i.e., a 50% reduction of AP-1 activity.

In the case of `CC1(C(=O)Nc2nncs2)Cc2sc(Br)cc2C1c1ccccc1` (racemic) [Example 1, (+/−)-2-Bromo-5-methyl-4-phenyl-N-(1,3,4-thiadiazol-2-yl)-5,6-dihydro-4H-cyclopenta[b]thiophene-5-carboxamide], the Ki in experiment [1] turned out to be 5.3 nM. In the case of `CCN(C)C(=O)c1ccc(-c2cc3c(s2)C[C@](C)(C(=O)Nc2nncs2)[C@@H]3c2ccccc2)cc1` (racemic) [Example 4], the “AP-1 Max % inh (Cellular Transrepression Assay)” value (from here on “AP-1 Max % inh”) in experiment [2] amounted to 52.82%. Further, in experiment [2] (Homo sapiens), the EC50 came to 35 nM.

As to `CN(C)C(=O)c1ccc(-c2cc3c(s2)C[C@](C)(C(=O)Nc2nncs2)[C@@H]3c2ccccc2)cc1` (racemic) [Example 5], in experiment [2], the “AP-1 Max % inh” value came out at 43.98% and the EC50 was found to be 14 nM. In the same order, the values of `CN(C)C(=O)c1ccc(-c2cc3c(s2)C[C@](C)(C(=O)Nc2nncs2)[C@@H]3c2ccccc2)cc1Cl` (racemic) [Example 6] are 29.32% and 53.1 nM.

Consider `C[C@]1(C(=O)Nc2nncs2)Cc2sc(-c3ccc(C(=O)N4CCOCC4)cc3)cc2[C@H]1c1ccccc1` (racemic) [Example 7], for which, in experiment [2], the “AP-1 Max % inh” value is 44.81% and the EC50 was found to be 22.5 nM.

Turning to `C[C@]1(C(=O)Nc2nncs2)Cc2sc(-c3ccc(C(=O)N4CCCC4)cc3)cc2[C@H]1c1ccccc1` (racemic) [Example 8], in experiment [2], the “AP-1 Max % inh” value was found to be 42.74% and the EC50 was 42.1 nM.

As to `CN(C)C(=O)c1ccc(-c2cc3c(s2)C[C@](C)(C(=O)Nc2nncs2)[C@@H]3c2ccccc2)cc1F` (racemic) [Example 9], in experiment [2], the “AP-1 Max % inh” value amounted to 26.03% and the EC50 turned out to be 40.2 nM. On the same counts, the results for `CCN(C)C(=O)c1ccc(-c2cc3c(s2)C[C@](C)(C(=O)Nc2nncs2)[C@@H]3c2ccccc2)cc1F` (racemic) [Example 10] are 27.94% and 24.2 nM. Turning to `CCN(C)C(=O)c1ccc(-c2cc3c(s2)CC(C)(C(=O)Nc2nncs2)C3c2ccccc2)cc1Cl` (racemic) [Example 11], the inhibition constant (Ki) in experiment [1] was 1.9 nM. Turning to `CC(C)NC(=O)c1nnc(NC(=O)C2(C)Cc3sc(-c4ccc(C(=O)N5CCOCC5)cc4)cc3C2c2ccccc2)s1` (racemic) [Example 22], in experiment [2], the “AP-1 Max % inh” value came to 55.76% and the concentration giving a half-maximal response (EC50) is 34.5 nM.

For the compound `Cc1nnc(NC(=O)C2(C)Cc3sc(-c4ccc(C(=O)N5CCOCC5)cc4)cc3C2c2ccccc2)s1` (racemic) [Example 23], in experiment [2], the “AP-1 Max % inh” value turned out to be 29.00% and the EC50 came to 452 nM. Take `C[C@]1(C(=O)Nc2nncs2)Cc2sc(-c3ccc(C(=O)N4CCOCC4)cc3)cc2[C@H]1c1cccc(F)c1` (relative stereo) [Example 24, (Cis)-4-(3-fluorophenyl)-5-methyl-2-(4-(morpholine-4-carbonyl)phenyl)-N-(1,3,4-thiadiazol-2-yl)-5,6-dihydro-4H-cyclopenta[b]thiophene-5-carboxamide]: the “AP-1 Max % inh” value in experiment [2] was 37.80%. The EC50 in experiment [2] (Homo sapiens) was found to be 23.1 nM. As to `C[C@]1(C(=O)Nc2nncs2)Cc2sc(Br)cc2[C@H]1c1ccccc1` [Example 2, (4S,5S)-2-Bromo-5-methyl-4-phenyl-N-(1,3,4-thiadiazol-2-yl)-5,6-dihydro-4H-cyclopenta[b]thiophene-5-carboxamide], the Ki in experiment [1] came out at 5.34 nM. Same read-out and setting: for `C[C@@]1(C(=O)Nc2nncs2)Cc2sc(Br)cc2[C@@H]1c1ccccc1` [Example 3, (4R,5R)-2-Bromo-5-methyl-4-phenyl-N-(1,3,4-thiadiazol-2-yl)-5,6-dihydro-4H-cyclopenta[b]thiophene-5-carboxamide] the value was 1.8 nM.

On to `CN(C)C(=O)c1ccc(-c2cc3c(s2)C[C@](C)(C(=O)Nc2nncs2)[C@@H]3c2ccccc2)cc1` [Example 12], for which, in experiment [2], the “AP-1 Max % inh” value is reported as 43.11% and the EC50 came out at 29.1 nM.

Consider `C[C@]1(C(=O)Nc2nncs2)Cc2sc(-c3ccc(C(=O)N4CCOCC4)cc3)cc2[C@H]1c1ccccc1` [Example 13], for which, in experiment [2], the “AP-1 Max % inh” value is on record as 50.68% and the 50% effective concentration (EC50) worked out at 23.9 nM. On the same counts, the results for `CN(C)C(=O)c1ccc(-c2cc3c(s2)C[C@](C)(C(=O)Nc2nncs2)[C@@H]3c2ccccc2)cc1Cl` [Example 14] are 42.02% and 63.7 nM. In the same order, the values of `CCN(C)C(=O)c1ccc(-c2cc3c(s2)C[C@](C)(C(=O)Nc2nncs2)[C@@H]3c2ccccc2)cc1` [Example 15] are 53.20% and 18.8 nM. In the same order, the values of `C[C@]1(C(=O)Nc2nncs2)Cc2sc(-c3ccc(C(=O)N4CCCC4)cc3)cc2[C@H]1c1ccccc1` [Example 16] are 56.78% and 290 nM. Regarding `C[C@@]1(C(=O)Nc2nncs2)Cc2sc(-c3ccc(C(=O)N4CCOCC4)cc3)cc2[C@@H]1c1ccccc1` [Example 18], in experiment [2], the “AP-1 Max % inh” value came out at 29.81% and the 50% effective concentration (EC50) came out at 27.3 nM. In the same order, the values of `CN(C)C(=O)c1ccc(-c2cc3c(s2)C[C@@](C)(C(=O)Nc2nncs2)[C@H]3c2ccccc2)cc1` [Example 19] are 38.78% and 21.8 nM.

Turning to `C[C@]1(C(=O)Nc2nnc(C(=O)NC3CC3)s2)Cc2sc(-c3ccc(C(=O)N4CCOCC4)cc3)cc2[C@H]1c1ccccc1` [Example 21], the “AP-1 Max % inh” value in experiment [2] came to 60.04%. Moreover, the EC50 in experiment [2] (Homo sapiens) was 22.8 nM.
